Reference: the supplement of paper PMC10307832

Key:
Experiment in all cases: relative viability (nuclei count vs DMSO), 5 days (fraction); higher = more cells survive
Axitinib + Crizotinib = compound: CNC(=O)c1ccccc1Sc1ccc2c(/C=C/c3ccccn3)n[nH]c2c1 [Axitinib] + C[C@@H](Oc1cc(-c2cnn(C3CCNCC3)c2)cnc1N)c1c(Cl)ccc(F)c1Cl [Crizotinib] (partner 1 µM)
In short: (§1)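 Cells from lung cancer lines were seeded into 1536-well plates and, one day later, dosed by pin tool. Treatments were either a single drug or a fixed dose of an anchor drug with five library-drug doses (not always all listed) in √10 steps. After 5 days, nuclei were stained in a one-step fixation (final 0.05% Triton X-100, 1% formaldehyde, 1 ug/ml Hoechst) and counted on 4× images, and relative viability is the treated-to-vehicle nuclei ratio, as the median of duplicate plates.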

Axitinib + Decitabine = compound: CNC(=O)c1ccccc1Sc1ccc2c(/C=C/c3ccccn3)n[nH]c2c1 [Axitinib] + Nc1ncn([C@H]2C[C@H](O)[C@@H](CO)O2)c(=O)n1 [Decitabine] (partner 2 µM)
In short: as §1

Axitinib + Vorinostat = compound: CNC(=O)c1ccccc1Sc1ccc2c(/C=C/c3ccccn3)n[nH]c2c1 [Axitinib] + O=C(CCCCCCC(=O)Nc1ccccc1)NO [Vorinostat] (partner 1 µM)
In short: as §1

Bemcentinib + Vorinostat = compound: Nc1nc(Nc2ccc3c(c2)CC[C@@H](N2CCCC2)CC3)nn1-c1cc2c(nn1)-c1ccccc1CCC2 [Bemcentinib] + O=C(CCCCCCC(=O)Nc1ccccc1)NO [Vorinostat] (partner 1 µM)
In short: as §1

Cell Line	relative viability (Axitinib + Crizotinib; first compound 0.005 µM)	relative viability (Axitinib + Crizotinib; first compound 0.01581 µM)	relative viability (Axitinib + Crizotinib; first compound 0.05 µM)	relative viability (Axitinib + Crizotinib; first compound 0.1581 µM)	relative viability (Axitinib + Crizotinib; first compound 0.5 µM)	relative viability (Axitinib + Decitabine; first compound 0.005 µM)	relative viability (Axitinib + Decitabine; first compound 0.01581 µM)	relative viability (Axitinib + Decitabine; first compound 0.05 µM)	relative viability (Axitinib + Decitabine; first compound 0.1581 µM)	relative viability (Axitinib + Decitabine; first compound 0.5 µM)	relative viability (Axitinib + Vorinostat; first compound 0.005 µM)	relative viability (Axitinib + Vorinostat; first compound 0.01581 µM)	relative viability (Axitinib + Vorinostat; first compound 0.05 µM)	relative viability (Axitinib + Vorinostat; first compound 0.1581 µM)	relative viability (Axitinib + Vorinostat; first compound 0.5 µM)	relative viability (Bemcentinib + Vorinostat; first compound 0.04 µM)	relative viability (Bemcentinib + Vorinostat; first compound 0.1265 µM)	relative viability (Bemcentinib + Vorinostat; first compound 0.4 µM)	relative viability (Bemcentinib + Vorinostat; first compound 1.265 µM)	relative viability (Bemcentinib + Vorinostat; first compound 4 µM)
COR-L 105	0.841	0.965	0.86	0.776	0.968	0.727	0.557	0.726	0.727	0.683	0.958	0.794	0.874	0.825	0.818	0.751	0.985	0.918	0.933	0.826
NCI-H838	0.852	0.945	0.874	0.886	0.953	0.503	0.492	0.433	0.487	0.475	0.814	0.725	0.792	0.707	0.752	0.746	0.799	0.718	0.82	0.719
NCI-H2170	1.2	1.18	1.27	1.1	1.35	0.483	0.439	0.411	0.48	0.488	0.898	0.85	0.896	0.739	0.799	0.732	0.855	0.992	0.745	0.897
EKVX	1.03	0.896	0.785	0.904	0.958	0.366	0.315	0.344	0.334	0.396	0.804	0.687	0.797	0.686	0.805	0.509	0.815	0.726	0.701	0.79
RERF-LC-KJ	0.801	0.856	0.862	0.771	0.823	0.663	0.694	0.67	0.596	0.738	0.703	0.648	0.725	0.705	0.803	0.699	0.732	0.713	0.635	0.65
LK-2	0.235	0.264	0.252	0.219	0.216	0.262	0.245	0.298	0.347	0.222	0.343	0.292	0.209	0.301	0.232	0.497	0.253	0.171	0.281	0.365
NCI-H1666	1.29	0.97	1.12	0.931	1.14	0.751	0.747	0.731	0.73	0.75	1.07	1.14	1.02	1.09	1.11	1.02	1.24	1.07	1	0.998
LCLC-103H	1.11	1.13	1	1.1	1.06	0.738	0.719	0.738	0.801	0.797	0.767	0.801	0.808	0.75	0.759	0.774	0.826	0.8	0.783	0.883
NCI-H1755	0.955	0.891	0.872	0.863	0.921	0.759	0.715	0.704	0.726	0.709	0.77	0.8	0.797	0.714	0.572	0.783	0.808	0.754	0.823	0.923
NCI-H520	0.72	0.829	0.734	0.542	0.776	0.527	0.422	0.509	0.449	0.481	0.797	0.678	0.686	0.691	0.801	0.678	0.902	0.83	0.626	0.761
PC-14	0.954	0.959	0.849	0.937	0.984	0.239	0.219	0.231	0.203	0.194	0.792	0.336	0.702	0.643	1.06	0.681	0.696	0.979	0.83	0.664
NCI-H2405	0.822	0.972	0.831	0.754	0.852	0.767	0.718	0.777	0.707	0.811	1.01	1.03	1.18	0.953	1.13	0.991	1.07	1.1	1.08	1.06
NCI-H596	1.03	1.06	1.06	0.993	0.495	1.15	0.976	1.32	0.935	1.07	0.764	0.627	0.576	0.558	0.575	0.582	0.449	0.721	0.391	0.674
